According to patent US20050148534A1, “Small molecule compositions and methods for increasing drug efficiency using compositions thereof” (priority 2003, published 2005):

Target: T1, Human thymidine kinase 1 (TK1) (Homo sapiens, UniProt P04183)
T1 construct: His tag (from pET28b(+)) (N); made in house; host or cells: E. coli BL21-codon plus
T1 sequence (P04183 1-234): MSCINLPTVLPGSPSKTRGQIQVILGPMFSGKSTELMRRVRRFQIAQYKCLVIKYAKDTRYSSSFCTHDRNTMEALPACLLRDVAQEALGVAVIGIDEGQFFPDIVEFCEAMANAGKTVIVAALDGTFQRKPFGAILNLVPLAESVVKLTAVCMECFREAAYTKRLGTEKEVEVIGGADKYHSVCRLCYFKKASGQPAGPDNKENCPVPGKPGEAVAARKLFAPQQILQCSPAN
Experiment: Thymidine kinase coupled (kinetic) ATP depletion assay
Type: biochemical
Conditions: initial velocity relative to thymidine; 100 μM conjugate
Procedure: Thymidine kinase, viral thymidine kinase, TK-1 deoxycytidine kinase, and deoxyguanosine kinase activities are determined by subjecting a first end of a linker used in synthesizing linker-substrate constructs to a first test. The first test may involve observing ADP formation, an obligatory co-product of phospho group transfer from ATP which is catalyzed by the kinase to the C5′ hydroxyl group or its equivalent in the nucleoside or nucleoside analog. Formation of ADP is followed by a coupled enzyme assay well known in the art. ADP, formed from kinase phosphorylation, is used by pyruvate kinase to generate pyruvate from phosphoenolpyruvate which in turn is converted to lactate by lactate dehydrogenase. The lactate results in the consumption of NADH which is followed spectrophotometrically. The rate of nucleoside phosphorylation is then directly related to the rate of decrease in the observed NADH signal.
TK1 was amplified using PCR with forward primer 5′-[…]-3′ and reverse primer 5′-[…]-3′. The PCR product was digested with Nde I and Hind III. An N-terminal His-tagged TK1 construct, TK1/pET28b(+), was generated by subcloning TK1 into the Nde I and Hind III sites of prokaryotic expression vector pET28b (+) (Novagen, San Diego, Calif.). TK1 was expressed from TK1/pET28b(+) using E. coli strain BL21-codon plus (Stratagene, San Diego, Calif.) and purified by Ni column chromatography.
A coupled (kinetic) ATP depletion assay was developed to measure thymidine kinase activity. The reaction contained 100 mM Tris HCl, pH 7.5, 20 mM MgCl2, 100 mM KCl, 0.4 mM PEP, 0.2 mM NADH, Pyruvate Kinase (0.7 units)/Lactate Dehydrogenase (1.0 unit) (Sigma #PO294), 2.5-10 μg Thymidine Kinase, 100 μM thymidine or thymidine-drug conjugate in a volume of 75 μl. ATP (5 mM in 25 μl H2O) was added to initiate the reaction and the velocity of ATP depletion was monitored at 340 nm continuously for 15 minutes.

## CC(=O)O[C@H]1C(=O)[C@@]2(C)[C@H]([C@H](OC(=O)c3ccccc3)[C@]3(O)C[C@H](OC(=O)[C@H](O)[C@@H](NC(=O)c4ccccc4)c4ccccc4)C(C)=C1C3(C)C)[C@]1(OC(C)=O)CO[C@@H]1C[C@@H]2O [Paclitaxel]
  Ave. TK1 Kinase Act.: A (A<20)
